“Also recorded” adds a separate entry of the source. Structures can show the parent of a compound that is named as a salt.
Tests used:
[1] = Water solubility; type: physicochemical
Excerpt: Danegaptide as a HCL salt is water-soluble. To investigate the viability of this drug, a melt extrusion formulation strategy was chosen, and six different formulations based on various viable excipients feasible for the melt extrusion process were manufactured with approximately 20% drug load.

[2] = Dissolution testing of prototype formulations in 0.9% NaCl at 37° C., HPLC; type: physicochemical; details: prolonged storage of the dosage form at 37° C.
Method: Described below is the dissolution behavior of Danegaptide when formulated in 6 different melt extrusion formulations. The formulations were manufactured with a drug load of about 20%. The formulations were exposed to physiological salt solutions at 37° C. and stored for several months. The media was changed regularly and analyzed for content of Danegaptide.
The dissolution process was investigated for each of the 6 manufactured prototypes by inserting the prototypes into a 0.9% NaCl solution and test the dissolution of Danegaptide over time by HPLC. The experiment was conducted over 170 days.
Fifteen dose units of each prototype was weighed and were wrapped into a permeable filter bag consisting of empty triangular tea bags made of polymeric material, with a mesh size of less than 0.5 μm. The bags were each inserted into glass vials and 10 ml 0.9% NaCl solution media were added to each vial. The vials were placed in a water bath at 37° C. At regular intervals the media was drained and 10 ml new media was added and the vials were returned to the water bath. […] One day delivery periods were also tested several times during the dissolution period. […] In addition, an informative impurity profile was recorded. In relation to this, the pH value of each collected media sample was determined. […]
The Danegaptide content was quantified to a Danegaptide reference substance. […]

[3] = tested on: Gap-Junction coupling; assay: In vitro and in vivo pre-clinical studies, Gap-Junction coupling under stressed conditions
[4] = tested on: retinal vascular cells; details: cited from earlier work
[5] = Toxicology program; type: in vivo; details: high concentration levels administered locally in selected tissues or systemically
Excerpt: However, the protective effects of danegaptide from stress-induced cell-cell uncoupling or cellular loss may be diminished or lost at higher concentrations of danegaptide.

[6] = tested on: vascular leakage; details: cited from earlier work
[7] = tested on: retinal endothelial cell coupling; details: in vitro; cited from earlier work

Structure (SMILES)	Water solubility [1]	Degradation of Danegaptide during the dissolution period (HPLC impurity profile) [2]	Optimal concentration in the target tissue, such as the retina, to maintain Gap-Junction coupling [3] [nM]	Cell-cell GJ uncoupling ([4]; high glucose condition)	High glucose-induced apoptosis ([4]; retinal vascular cells)	Toxicity [5]	Vascular leakage [6]	Concentration giving optimal protection from high-glucose induced cell-cell uncoupling [7] [nM]
NCC(=O)N1C[C@H](NC(=O)c2ccccc2)C[C@H]1C(=O)O [Danegaptide as a HCL salt]	water-soluble	–	–	–	–	–	–	–
NCC(=O)N1C[C@H](NC(=O)c2ccccc2)C[C@H]1C(=O)O [Danegaptide, (2S,4R)-1-(2-aminoacetyl)-4-benzoylamino-pyrrolidine-2-carboxylic acid]	–	probably only happened to a smaller extent; also recorded: did not indicate a significant degradation pattern	50 to 100	prevent cell-cell GJ uncoupling	prevent high glucose-induced apoptosis	no toxicity concerns	reduce vascular leakage	50 to 100

Source: US20250049758A1, “Danegaptide Formulation for Application in the Eye” (Breye Therapeutics APS, priority 2021, published 2025)
